Patent EP0420121A1, “Antitumor composition” (Senju Pharmaceutical Co., Ltd., priority 1989, dated 1991)
Where “and” joins values, the source holds several entries; their conditions need not be identical. Equal values may be shown once.

Tested on: Sarcoma 180 cells
Experiment: Pharmacological activity testing in mice with sarcoma 180
Assay type: in vivo, ddy strain male mice
Conditions: 100 mg/kg intraperitoneally once daily for 11 days
Excerpt: Pharmacological activity testing in mice with sarcoma 180
Sarcoma 180 cells (1.16 X 10⁷ cells/animal) were transplanted into groups of 8 ddy strain male mice (5 to 6 weeks of age) subcutaneously at the back on the right side of the body. In one group, the compound S- (α ,β -dicarboxyethyl)glutathione (hereinafter referred to as "DCE-GS" for short) in the forms of a 1.0% (w/v) injectable solution (pH 6.5; isotonized with sodium chloride) was intraperitoneally administered to the animals in a volume corresponding to the dose of 100 mg/kg once daily for 11 days. The control group was intraperitoneally given the same volume of physiological saline once daily for the same period. On day 12, the animals were sacrificed, the tumor was excised from each animal and weighed.

N[C@@H](CCC(=O)N[C@@H](CSC(CC(=O)O)C(=O)O)C(=O)NCC(=O)O)C(=O)O (stereo partly drawn) [DCE-GS, S-(α ,β -Dicarboxyethyl)glutathione]
Tumor growth inhibition (day 12, versus physiological saline group): Tumor growth inhibition = (3.45 - 1.79)/3.45 X 100 = 48.1% | Tumor weights (Mean) (sarcoma 180 transplanted subcutaneously, day 12, mean of 8 mice, physiological saline group 3.45± 0.42): 1.79 ± 0.14 g | Tumor weights (individual animals) (sarcoma 180 transplanted subcutaneously, tumor excised and weighed on day 12, individual No. 1-8, 100 mg/kg): 2.48 g and 1.92 g and 2.09 g and 1.47 g and 1.95 g and 1.11 g and 1.62 g and 1.69 g
